Laboratory results from patent US7754243B2, “Aqueous suspension of nanoscale drug particles from supercritical fluid processing” (Clemson University Research Foundation, priority 2004, dated 2010).

Assays:
[1] = Stability of the product aqueous suspension against precipitation; type: physicochemical; settings: for time until precipitation appeared in the suspension: receiving solution neat water
Procedure: (§1) A system similar to that illustrated in FIG. 1 was utilized to form aqueous suspensions of Ibuprofen particles. Specifically, a solution (0.25 mg/mL) of Ibuprofen (available from Sigma-Aldrich Corporation) in liquid carbon dioxide (high-purity, SFC grade obtained from Air Products Corporation) was prepared in the syringe pump 10. The solution was pushed through the heating unit 14 to reach the desired supercritical temperature of 40° C. before reaching the expansion nozzle 16. The rapid expansion was carried out at a pre-expansion pressure of 200 bar through a 50 μm orifice into an aqueous solution. FIG. 2A is an SEM analysis of the precipitate obtained when the receiving solution in the expansion chamber 18 was neat water.

[2] = Statistical analysis of SEM images of nanoparticles in the product aqueous suspension; type: physicochemical; settings: for average nanoparticle size: Ibuprofen
Procedure: as §1, with “A specimen” for “FIG. 2A is an SEM analysis”, “product suspension was prepared for SEM imaging by depositing a few drops of the dilute nanoparticle aqueous suspension onto a carbon tape, followed by drying under ambient condition and then coating with platinum before imaging. SEM images were” for “precipitate”, “on a Hitachi S-4700 Field-Emission SEM system.” for “when the receiving solution in the expansion chamber 18 was neat water.”

## CC(C)Cc1ccc(C(C)C(=O)O)cc1 (centres unmarked) [Ibuprofen]
[1]; receiving solution aqueous PVP (Mw≈40,000)
  stability of product suspension: no sign of instability after several days
[1]; receiving solution aqueous SDS, 3.3 mg/mL
  stability of product suspension: remained stable without precipitation
[1]
  time until precipitation appeared in the suspension: ≤ 15 min
[2]; Ibuprofen loading 0.25 to 0.83 mg/mL, PVP concentration 0.5 to 3.3 mg/mL
  change in nanoparticle size on increase of drug loading and PVP concentration: no significant changes
[2]; Ibuprofen nanoparticles, receiving solution aqueous PVP (Mw≈40,000), pre-expansion 40° C., 200 bar
  average size in diameter: 40 nm
[2]; Ibuprofen nanoparticles, receiving solution aqueous SDS, 3.3 mg/mL
  average size in diameter: 25 nm
[2]; PVP receiving solution, pre-expansion temperature 120° C.
  average nanoparticle size: 52 nm
[2]; high-molecular weight PVP (Mw≈360,000)
  average nanoparticle size: 30 nm
[2]; PVP, drug/polymer weight ratio varied from 0.3 to 4 (Ibuprofen) or 0.3 to 2 (Naproxen)
  change in average particle size on variation of drug/polymer weight ratio: no significant changes

## COc1ccc2cc([C@H](C)C(=O)O)ccc2c1 [Naproxen]
[1]
  time until precipitation appeared in the suspension: ≤ 15 min
[2]; Naproxen nanoparticles, 2 wt % methanol co-solvent, receiving solution 0.5 mg/mL PVP (Mw≈40,000)
  average size in diameter: 64 nm
